Measured values: patent publication US20260315494A1, “TREATMENT OF BREAST TISSUE” (Havah Therapeutics Pty Ltd, priority 2023, published 2026)
Where “and” joins values, the source holds several entries; their conditions need not be identical. Identical values can stand only once.

How the values were obtained:
[1] = Single-dose pharmacokinetics of T+Ai pellet implant (80 mg testosterone + 4 mg anastrozole, subcutaneous); details: for concentration at 1 h: 1 h post-dose; for concentration at 2 h: 2 h post-dose; for concentration at 4 h: 4 h post-dose; for concentration at 8 h: 8 h post-dose; for concentration at 12 h: 12 h post-dose; for concentration at 24 h: 24 h post-dose; for concentration at 72 h: 72 h post-dose; for concentration at 1680 h: 1680 h post-dose; for concentration at 2016 h: 2016 h post-dose
Experimental: The premenopausal women were aged between 35 and 55 years of age with a BMI range of 20-30 kg/m^2. […] The implant was intended to be left in situ and was expected to be almost completely absorbed within three months following insertion.
A total of 11 subjects were dosed with the implant and included in the safety analysis set. All 11 subjects were included in the pharmacokinetics (PK) analysis set.
(NB: the sample collection time point at 6 hours post-dose was added for the third and subsequent subject and so serum measurements were not determined for the first two subjects as noted below).
Patients seeking treatment with the T+Ai for reduction in high MBD were eligible for the study. Following successful screening, subjects attended the Wellend Health Clinic for dosing. The trial was designed to dose all subjects while in the luteal phase of their menstrual cycle to avoid the highly changing hormonal environment of the follicular phase. Following insertion of the implant, PK blood sampling was carried out for a duration of three months (see below). Briefly, samples were taken repeatedly on the day of dosing, daily during the first week, weekly for the next four weeks and every second week during the last eight weeks of a total sampling period of three months.
The sampling schedule was revised with the addition of one blood sample (at 6 hours post-dose as discussed above), and no adjustment of the timing of existing time points was made. The duration of sampling was not extended.
Following dosing on Day 1, blood samples were taken pre-dose (within one hour of dosing) and at 1, 2, 4, 6, 8 and 12 hours. Participants returned for a blood sample to be taken at 9 am in the morning on Days 2, 3, 4, 5, 8, 15, 22, 29, 43, 57, 71 and 85.

breast tissue = details: high dose androgen (testosterone), Raths 2023; cited from earlier work
CRPC = details: with a CDK4/6 inhibitor, Han 2022; cited from earlier work
breast = details: injected prior to breast cancer surgery; cited from earlier work
human mTOR = assay: Western blot of mTOR in breast cancer explants treated with DHT; assay type: cell-based; details: for mTOR Western blot ratio to beta-Actin, average: average of 3 patients; for mTOR Western blot ratio to beta-Actin, average / mTOR Western blot ratio to beta-Actin: 5 nM anastrozole, 24 h; for mTOR Western blot ratio to beta-Actin: individual patient
Experimental: (§1) To evaluate the effect of DHT on breast cancer tissue, 3 primary tumours were examined in the presence of a low anastrozole level of 5 nM employing a modification of the method described by Jankovic-Karasoulos T. et al., 2008.
(§2) The 3 explant invasive breast carcinomas were examined for expression of mTOR and c-Myc and response to exposure to DHT by Western blotting. […] The band density was measured by densitometry, using Image Master VDS and Image Quant Analysis Software (Amersham Pharmacia Biotech, Hong Kong). The relative protein levels of mTOR or MYC and b-actin in the original total protein lysate from the breast preparations were obtained. mTOR or MYC protein expression was normalized to beta-actin protein expression. Immunizing host antibodies were produced with a synthetic peptide derived from the sequence of human mTOR or MYC, purified by peptide affinity chromatography and confirmed using control peptides. The results of the Western blot analysis for mTOR or MYC proteins in the 3 explant samples at baseline and after 24 hours of culture are shown in Table 3 and Table 4 for mTOR or MYC respectively. Cell lysates were immunoblotted with antibodies to mTOR or MYC. The experiment was performed twice with similar results. Data are expressed relative to beta-actin.

human MYC = assay: Western blot of MYC in breast cancer explants treated with DHT; assay type: cell-based; details: for MYC Western blot ratio to beta-Actin / MYC Western blot ratio to beta-Actin, average: 24 h
Experimental: as §1, §2

androgen receptor (AR) = details: tumoural DHT from 1 nM up to 10 nM, Hickey 2021; cited from earlier work
PCa cells = details: cited from earlier work
[2] = test system: endogenous AR pathways / ER-mediated transcriptional activity; details: human explant tissue and breast cancer cell lines; cited from earlier work
AR/GATA3 = details: Hosseinzadeh 2024; cited from earlier work
aromatase = details: increasing DHT in the breast, Perel; cited from earlier work
5α-reductase = details: increasing DHT in the breast, McNamara 2014; cited from earlier work
[3] = human, in vivo, sc, 80 mg, Measured serum testosterone, GeoMean, geometric mean
[4] = human, in vivo, sc, 80 mg, Measured serum testosterone, mean
[5] = human, in vivo, sc, 80 mg, Measured serum testosterone, median
[6] = on the basis of the present results

Question: What does the source list for C[C@]12CC[C@H]3[C@@H](CCC4=CC(=O)CC[C@@]43C)[C@@H]1CC[C@@H]2O [Testosterone, testosterone]?
Answer: average serum testosterone concentration at 12 weeks ([1]; 12 weeks post-dose, 120960 min): 0.8 ng/mL; increase in serum testosterone compared with baseline ([1]; all subjects, 12 weeks): sustained in all subjects at 12 weeks; average serum testosterone at baseline ([1]; baseline, before implant): 0.2 ng/mL; Measured serum testosterone, GeoMean ([1]; geometric mean, pre-dose): 0.19 ng/mL; Tmax ([1]; human, in vivo, sc, 80 mg): 6 to 12 h; concentration at 1 h [1, 3]: 0.49 ng/mL; concentration at 2 h [1, 3]: 0.6 ng/mL; concentration at 4 h [1, 3]: 0.94 ng/mL; concentration at 6 h ([1]; human, in vivo, sc, 80 mg, Measured serum testosterone, GeoMean, geometric mean, 6 h post-dose): 2.53 ng/mL; concentration at 8 h [1, 3]: 3.29 ng/mL; concentration at 12 h [1, 3]: 3.36 ng/mL; concentration at 24 h [1, 3]: 2.39 ng/mL; concentration at 72 h [1, 3]: 1.63 ng/mL; concentration at 1680 h [1, 3]: 0.99 ng/mL; concentration at 1680 h ([1]; human, in vivo, sc, 80 mg, Measured serum testosterone, individual subject): 0.791 ng/mL; concentration at 1 h [1, 4]: 0.55 ng/mL; concentration at 2 h [1, 4]: 0.73 ng/mL; concentration at 4 h [1, 4]: 1.43 ng/mL; concentration at 8 h [1, 4]: 3.55 ng/mL; concentration at 12 h [1, 4]: 3.43 ng/mL; concentration at 24 h [1, 4]: 2.45 ng/mL; concentration at 48 h ([1]; human, in vivo, sc, 80 mg, Measured serum testosterone, mean, 48 h post-dose): 1.83 ng/mL; concentration at 72 h [1, 4]: 1.73 ng/mL; concentration at 168 h ([1]; human, in vivo, sc, 80 mg, Measured serum testosterone, mean, 168 h post-dose): 1.53 ng/mL; concentration at 504 h ([1]; human, in vivo, sc, 80 mg, Measured serum testosterone, mean, 504 h post-dose): 2.26 ng/mL; concentration at 1344 h ([1]; human, in vivo, sc, 80 mg, Measured serum testosterone, mean, 1344 h post-dose): 1.25 ng/mL; concentration at 1680 h [1, 4]: 1 ng/mL; concentration at 2016 h [1, 4]: 0.83 ng/mL; concentration at 1 h [1, 5]: 0.47 ng/mL; concentration at 2 h [1, 5]: 0.51 ng/mL; concentration at 4 h [1, 5]: 0.92 ng/mL; concentration at 1008 h ([1]; human, in vivo, sc, 80 mg, Measured serum testosterone, median, 1008 h post-dose): 1.4 ng/mL; concentration at 1680 h [1, 5]: 1 ng/mL; concentration at 2016 h [1, 5]: 0.85 ng/mL; Measured serum testosterone, mean ([1]; mean, pre-dose): 0.21 ng/mL; Measured serum testosterone, median ([1]; median, pre-dose): 0.19 ng/mL; average Cmax, serum testosterone ([1]; serum): 4.1 ng/mL; median Tmax for serum testosterone ([1]; serum, post-dose): 8 h; breast ductal structures (breast tissue): breast ductal structures shrunk; efficacy of high-testosterone treatment with CDK4/6 inhibitor (CRPC): enhanced by a CDK4/6 inhibitor

Question: Which “accumulation of radioactive DHT” value (breast) does the source give for C[C@]12CCC(=O)C[C@@H]1CC[C@@H]1[C@@H]2CC[C@]2(C)[C@@H](O)CC[C@@H]12 [radioactive DHT] here?
Answer: initially accumulated in the fat of the breast then strongly accumulated in the malignancy

Question: With C[C@]12CCC(=O)C[C@@H]1CC[C@@H]1[C@@H]2CC[C@]2(C)[C@@H](O)CC[C@@H]12 [DHT, 5α-dihydrotestosterone] as the molecule, how does the “serum DHT” value ([1]; most samples) read?
Answer: not measurable in most samples

Question: What about the “mTOR expression in words” value (human mTOR; 0.1 nM DHT) of the same molecule?
Answer: markedly elevated

Question: And the “mTOR Western blot ratio to beta-Actin, average” value (human mTOR; 0.1 nM DHT)?
Answer: 1.01

Question: And the “mTOR Western blot ratio to beta-Actin” value (human mTOR; 0.1 nM DHT)?
Answer: 0.81 and 1.01 and 1.23

Question: What about the “mTOR expression in words” value (human mTOR; 1 nM DHT) of the same molecule?
Answer: barely discernable

Question: And the “mTOR Western blot ratio to beta-Actin, average” value (human mTOR; 1 nM DHT)?
Answer: 0.04

Question: What about the “mTOR Western blot ratio to beta-Actin” value (human mTOR; 1 nM DHT) of the same molecule?
Answer: 0.04 and 0.02 and 0.06

Question: What about the “mTOR expression in words” value (human mTOR; 10 nM DHT) of the same molecule?
Answer: essentially not detected

Question: And the “mTOR Western blot ratio to beta-Actin, average” value (human mTOR; 10 nM DHT)?
Answer: 0.04

Question: And the “mTOR Western blot ratio to beta-Actin” value (human mTOR; 10 nM DHT)?
Answer: 0.03 and 0.05 and 0.04

Question: What about the “DHT concentration required to inhibit induction of mTOR activity” value (human mTOR; [6]) of the same molecule?
Answer: at least 1 nM

Question: What about the “Myc expression in words” value (human MYC; 0.1 nM DHT) of the same molecule?
Answer: markedly elevated

Question: And the “suppression of c-Myc” value (human MYC; 0.1 nM DHT)?
Answer: unable to suppress c-Myc

Question: And the “MYC Western blot ratio to beta-Actin” value (human MYC; 0.1 nM DHT, individual patient, 5 nM anastrozole)?
Answer: 1.01 and 1.23

Question: What about the “Myc expression in words” value (human MYC; 1 nM DHT) of the same molecule?
Answer: barely discernable

Question: And the “MYC Western blot ratio to beta-Actin” value (human MYC; 1 nM DHT, individual patient, 5 nM anastrozole)?
Answer: 0.02 and 0.06

Question: What about the “Myc expression in words” value (human MYC; 10 nM DHT) of the same molecule?
Answer: essentially not detected

Question: What about the “MYC Western blot ratio to beta-Actin” value (human MYC; 10 nM DHT, individual patient, 5 nM anastrozole) of the same molecule?
Answer: 0.05 and 0.04

Question: What about the “MYC Western blot ratio to beta-Actin” value (human MYC; 0.0001 µM) of the same molecule?
Answer: 0.39

Question: And the “MYC Western blot ratio to beta-Actin, average” value (human MYC; 0.0001 µM)?
Answer: 1.01

Question: And the “MYC Western blot ratio to beta-Actin” value (human MYC; 0.001 µM)?
Answer: 0.04

Question: What about the “MYC Western blot ratio to beta-Actin, average” value (human MYC; 0.001 µM) of the same molecule?
Answer: 0.04

Question: What about the “MYC Western blot ratio to beta-Actin” value (human MYC; 0.01 µM) of the same molecule?
Answer: 0.03

Question: And the “MYC Western blot ratio to beta-Actin, average” value (human MYC; 0.01 µM)?
Answer: 0.04

Question: What about the “suppression of c-Myc” value (human MYC; intra-tumoural DHT from 1 to 10 nM) of the same molecule?
Answer: results in suppression of c-Myc

Question: What about the “DHT concentration required for suppression of cMyc” value (human MYC; [6]) of the same molecule?
Answer: at least 1 nM

Question: What about the “AR tumour suppressor induction” value (androgen receptor (AR)) of the same molecule?
Answer: can induce androgen receptor (AR) to become a tumour suppressor of estrogen receptor (ER) positive breast cancer

Question: What about the “c-Myc expression associated with AR dimer” value (PCa cells; elevated DHT levels) of the same molecule?
Answer: reduction in c-Myc expression

Question: What about the “mTOR activity associated with AR monomer” value (PCa cells; low level DHT) of the same molecule?
Answer: elevated mTOR activity

Question: And the ER-mediated transcriptional activity [2]?
Answer: can activate endogenous AR pathways to inhibit ER-mediated transcriptional activity

Question: What about the AR/GATA3 binding (AR/GATA3) of the same molecule?
Answer: induces AR/GATA3 binding

Question: What about the “aromatase in breast tissue” value (aromatase) of the same molecule?
Answer: down regulation of aromatase

Question: And the “5α-reductase in breast tissue” value (5α-reductase)?
Answer: up regulation of 5α-reductase
